Source: patent publication US20210337838A1, “RECOMBINANT EXPRESSION OF FUMONISIN AMINE OXIDASE” (priority 2018, published 2021)
Residue numbers refer to the chain shown, from its start. Names and notes keep the numbering of the source. Like-named read-outs stand apart in the source and are kept apart here.

Tests used:
AnFAO_15309 [1] = target: T1, AnFAO_15309 (Aspergillus niger, UniProt A2R252); assay: Kinetic analysis of recombinant AnFAO_15309; assay type: biochemical
Description: (§1) Absorbance was monitored at 571 nm every 10 mins for 1 hr. A standard curve consisting of 0-10 μM H2O2 was included to determine the absorbance for every μmol of H2O2 generated by the reaction.
The resulting mixture was twice extracted with equal volumes of ethyl acetate, dried, and re-suspended in reaction buffer.

AnFAO_15309 [2] = target: T1, AnFAO_15309; assay type: biochemical; conditions: 20 nM enzyme, 50 μM substrate, pH 7.0, 1 hr
Description: as §1

[3] = system: fumonisin deamination activity from A. niger culture supernatants; assay: Fumonisin chemotype preference of deamination activity, reverse-phase LC-MS; assay type: biochemical, Aspergillus niger; conditions: for initial conversion rate of intact to deaminated fumonisin: FB1 and FB2 co-incubated at 37° C. with active sample following high-resolution ion exchange, n=2
Description: After each step, protein fractions were assayed for deamination activity by monitoring their ability to convert intact FB2 into FPy2 via reverse-phase liquid chromatography/mass spectrometry (LC-MS), as shown in FIG. 2. In particular, all MS data were collected with a Q-Exactive™ Quadrupole Orbitrap™ mass spectrometer (Thermo Scientific, MA, USA) coupled to an Agilent 1290 ultra-high-performance liquid chromatography (UHPLC) system. Fumonisins were resolved on a Zorbax™ Eclipse Plus Rapid Resolution High Definition (RRHD) C18 column (2.1×50 mm, 1.8 μm; Agilent Technologies, CA, USA), maintained at 35° C. The mobile phase was comprised of water with 0.1% formic acid (A), and acetonitrile with 0.1% formic acid (B) (Optima grade, Fisher Scientific, NJ, USA). The gradient consisted of 0% B for 0.5 min before increasing to 100% over 3 min, held at 100% for 2.5 min and reduced to 0% over 0.5 min. The fumonisins were detected in negative ionization mode using the following electrospray conditions: capillary voltage, 4.0 kV; capillary temperature, 400° C.; sheath gas, 17.00 units; auxiliary gas, 8.00 units; probe heater temperature, 450° C.; S Lens RF level, 45.00. The data-dependent acquisition method involved a full MS scan at 17,500 resolution over a scan range of 140-760 m/z; automatic gain control (AGC) target and maximum injection time (max IT) was 5×10^6 and 64 ms, respectively. The five highest intensity ions from the full scan (excluding isotopes) were sequentially selected using a 1.2 m/z isolation window and analyzed at a resolution of 17,500; AGC target, 1×10^5; max IT, 64 ms; normalized collision energy (NCE) 30; threshold intensity 9.1×10^4; and dynamic exclusion of 1.5 s. Fumonisins were detected by accurate mass (±5 ppm) and retention time (±0.1 min) and verified by MS/MS.
All samples assayed during protein purification were incubated at 37° C. with 1 μM FB2 (Sigma) unless stated otherwise. Reactions were terminated via addition of a 10-fold volume excess of 50% (v:v) methanol in water prior to reverse-phase LC/MS analysis represented in FIG. 2.

[4] = substrate: CCCCCCCCCCCCCCC[C@@H](O)[C@@H](N)CO; assay: purified protein, by the assay type; conditions: other: recombinant AnFAO_15309; pH 7.0
[5] = substrate: CCCC[C@@H](C)[C@@H](O)[C@@H](O)C[C@@H](C)C[C@H](O)CCCC[C@@H](O)C[C@H](O)[C@H](C)N; assay: purified protein, by the assay type; conditions: other: recombinant AnFAO_15309; pH 7.0
[6] = Amplex red assay of AnFAO homolog clones; assay type: biochemical
Excerpt: Seven of the AnFAO homologs were synthesized and cloned into the MBP-TEV vector for recombinant expression in E. coli.

[7] = Circular dichroism thermal denaturation; assay type: physicochemical; conditions: 0.3 mg/ml, 20 mM Tris-HCl (pH 7.4), 50 mM NaCl, 0.75 mM DTT, monitored at 222, 20 to 95° C.
Description: Activity was measured via reverse-phase LC/MS analysis. […] All proteins were scanned at a concentration of 0.3 mg/ml in buffer containing 20 mM Tris-HCl (pH 7.4), 50 mM NaCl and 0.75 mM DTT. Thermal denaturation was monitored at […] with a temperature scan ranging from 20 to 95° C., increasing by 1° C. per minute with data collection every 30 seconds. Baseline corrected data were converted from millidegrees to mean residue ellipticity, and thermal denaturation curves were produced by nonlinear regression in Graphpad Prism.

Molecule: CCCC[C@@H](C)[C@@H](O)[C@@H](O)C[C@@H](C)C[C@H](O)CCCC[C@@H](O)C[C@H](O)[C@H](C)N [hFB1]
- fold change (efficiency compared to FB2) (AnFAO_15309 [1]; kcat/KM relative to FB2 = 1.0): 4.6 fold
- kcat (AnFAO_15309 [1]; recombinant AnFAO_15309): 17.9 min⁻¹

Molecule: CCCN [propylamine]
- relative activity, relative to FB3 (100% activity) (AnFAO_15309 [2]): 5.6%

Molecule: NCc1ccccc1 [benzylamine]
- relative activity, relative to FB3 (100% activity) (AnFAO_15309 [2]): 1.4%

Molecule: NCCc1ccc(O)c(O)c1 [dopamine]
- relative activity, relative to FB3 (100% activity) (AnFAO_15309 [2]): 9.7%

Molecule: NCCc1c[nH]c2ccc(O)cc12 [serotonin]
- relative activity, relative to FB3 (100% activity) (AnFAO_15309 [2]): 3.7%

Molecule: CCCC[C@@H](C)[C@@H](OC(=O)C[C@@H](CC(=O)O)C(=O)O)[C@H](C[C@@H](C)CCCCCC[C@@H](O)C[C@H](O)[C@H](C)N)OC(=O)C[C@@H](CC(=O)O)C(=O)O [FB2, fumonisin B2]
- initial conversion rate of intact to deaminated fumonisin [3]: 24.3±1.5 % hr^−1
- chemotype preference for FB2 compared to FB1 ([3]; co-incubation of FB1 and FB2 at 37° C.): order of magnitude
- fold change (efficiency compared to FB2) (AnFAO_15309 [1]; kcat/KM relative to FB2 = 1.0): 1.0 fold
- Km (AnFAO_15309 [1]; recombinant AnFAO_15309): 195 µM
- kcat (AnFAO_15309 [1]; recombinant AnFAO_15309): 13.7 min⁻¹
- efficiency at deaminating FB2 compared to FB1 (AnFAO_15309 [1]; relative to FB1): 3.2 fold
- increase in catalytic efficiency (kcat) FB2 vs. FB1 (AnFAO_15309 [1]; relative to FB1): ~1.6 fold
- stronger affinity (KM) FB2 vs. FB1 (AnFAO_15309 [1]; relative to FB1): ~2 fold

Molecule: Fumonisin B1 [FB1]
- initial conversion rate of intact to deaminated fumonisin [3]: 2.1±0.1 % hr^−1
- fold change (efficiency compared to FB2) (AnFAO_15309 [1]; kcat/KM relative to FB2 = 1.0): 0.3 fold

Molecule: NCCCC[C@H](N)C(=O)O [lysine]
- relative activity, relative to FB3 (100% activity) (AnFAO_15309 [2]): 6.3%

Molecule: NCCc1ccc(O)cc1 [tyramine]
- relative activity, relative to FB3 (100% activity) (AnFAO_15309 [2]): 5.8%

Molecule: NCCCCNCCCN [spermidine]
- relative activity, relative to FB3 (100% activity) (AnFAO_15309 [2]): 1.4%

Molecule: N[C@H]1C(O)O[C@H](CO)[C@@H](O)[C@@H]1O (stereo partly drawn) [glucosamine]
- relative activity, relative to FB3 (100% activity) (AnFAO_15309 [2]): 1.2%

Molecule: NCCCNCCCCNCCCN [spermine]
- relative activity, relative to FB3 (100% activity) (AnFAO_15309 [2]): 1.9%

Molecule: CCCC[C@@H](C)[C@@H](OC(=O)CC(CC(=O)O)C(=O)O)[C@H](C[C@@H](C)C[C@H](O)CCCCCC[C@@H](O)[C@H](C)N)OC(=O)CC(CC(=O)O)C(=O)O (stereo partly drawn) [FB3]
- relative activity, relative to FB3 (100% activity) (AnFAO_15309 [2]): 100%

Molecule: CCCCCCCCCCCCCCC[C@@H](O)[C@@H](N)CO [sphinganine]
- fold change (efficiency compared to FB2) (AnFAO_15309 [1]): 16.6 fold
- kcat (AnFAO_15309 [1]; recombinant AnFAO_15309): 36.7 min⁻¹

B1: AnFAO_15309 (Aspergillus niger CBS 513.88) (protein)
chain: MSVSNDPTTKLYDAVIVGAGLSGLQAAHSIQAAGFSVCILEATDRMGGKTLTVKSSEKGYNDLGAAWVNDTNQTEIFKLHQRYGLDGVVQYTCGDDILESGEGVIRKIPYGLPLTGLPKKLLDILRIESSRLDLDDPTSFPGATEVDNLTFRDFCVEKTGSEDVIHITDAISTALLGLNSNELSALYMLYYFKSGSGIDNLLSDERDGAQYLRTRQGTQTIARKMADELTQSDIFLGMPVTSINQTDADAHCVVQTLDGSSFRCRRVIVSIPTTLYRSVSFHPPLPHAKQVLSDHTIMGYYSKVIFIFKEPWWRDAGLTGIVNCAGGPITFTRDTSVPTDDQWSITCFMVGSRGRAWSKLSKDDRYSQVWEQFRRCFEEFVENIPEPVNTLEMEWSKEPYFLGAPCPAMIPGLLTTAGSDLAAPHGKVHFIGTETSTVWRGYMEGAIRAGQRGGAEVVTALQED
- Km [4]: 31.4 µM
- kcat [4]: 0.612 s⁻¹
- kcat/Km [4]: 19000 M⁻¹ s⁻¹
- Km [5]: 55.2 µM
- kcat [5]: 0.298 s⁻¹
- kcat/Km [5]: 5400 M⁻¹ s⁻¹

B2: AnFAO_6142: AnFAO homolog clone, SEQ ID NO: 28, identical to AnFAO_10929; substitutions M46V, R82Q, V267L vs AnFAO_15309 (protein)
chain: B1 chain with M46V, R82Q, V267L
modifications: Aspergillus niger
notes: substitutions M46V, R82Q, V267L vs AnFAO_15309
- activity compared to AnFAO_15309 (fold) ([6]; 80 nM enzyme, 25 μM FB1, pH 7): 2.5 ×
- relative activity ([6]; relative to AnFAO_15309 = 1): (relative activity = 2.5):
- melting temperature [7]: 76 °C

B3: AnFAO_10927: AnFAO homolog clone, SEQ ID NO: 27 (protein)
chain: B1 chain with M46V, T230S, Q255K, N323D, C376F, V388A
modifications: Aspergillus niger
- activity compared to 15309 ([6]; 80 nM enzyme, 25 μM FB1, pH 7): 31%
- melting temperature [7]: 76 °C

B4: AnFAO_7097: AnFAO homolog clone, SEQ ID NO: 29 (protein)
chain: B1 chain with M46V, R82Q, N323D, F377L, E379G, V388A, A417T
modifications: Aspergillus niger
- activity compared to 15309 ([6]; 80 nM enzyme, 25 μM FB1, pH 7): 27%
